Data as given in patent US11999727B2 (Tango Therapeutics, Inc., priority 2020, dated 2024).

Assays:
[1] = biological target: T1, PRMT5 (Homo sapiens, UniProt O14744); assay: PRMT5 biochemical IC50 assay with SAM as cofactor; details: PRMT5, SAM as cofactor; read-out: SAM IC50
T1 construct: purchased Viva (custom protein)

[2] = biological target: T1, PRMT5; assay: PRMT5 biochemical IC50 assay with MTA as cofactor; details: PRMT5, MTA as cofactor; read-out: MTA IC50
[3] = system: HAP1 MTAP-deleted cell line; assay: Viability assay, MTAP-deleted cell line; type: cell-based; details: Homo sapiens, HAP1, viability assay, MTAP-deleted cell line; read-out: HAP1 MTAP deleted viability
From the text: Table 1 additionally indicates IC50 values in a viability assay for the MTAP-deleted cell line (column 10), indicating the effect of treatment with compound on cell survival.

[4] = system: HAP1 MTAP-intact cell line; assay: SDMA in-cell western assay, HAP1 MTAP-intact; type: cell-based; details: Homo sapiens, HAP1, SDMA in-cell western, HAP1 MTAP-intact; read-out: MTAP HAP1 intact IC50
Summary of the method: (§1)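 Readout: in-cell western detection of SDMA. Cells: HAP1 expressing endogenous MTAP and an MTAP-null HAP1 counterpart. Output: IC50.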

[5] = system: HAP1 MTAP-deleted cell line; assay: SDMA in-cell western assay, HAP1 MTAP-deleted; type: cell-based; details: for IC50: Homo sapiens, HAP1, SDMA in-cell western, HAP1 MTAP-deleted, read-out: HAP1 MTAP deleted IC50; for MTAP intact/deleted ratio: IC50 ratio HAP1 MTAP-intact / HAP1 MTAP-deleted, SDMA in-cell western
Summary of the method: as §1

[6] = biological target: T1, PRMT5; assay: PRMT5 biochemical IC50 assay with no cofactor; details: PRMT5, no cofactor; read-out: No Cofactor/rel IC50
From the text: Table 1 indicates IC50 values (μM) against PRMT5 for exemplary compounds in the presence of SAM as cofactor, with no cofactor, and with MTA as cofactor, respectively (columns 4-6). […] Ki values can be calculated from the IC50 values as described in the Examples section. As detailed in the Examples section, for the assay performed in the presence of SAM, IC50=Ki×1.5 (Ki=IC50/1.5).

T1 sequence (O14744 whole entry): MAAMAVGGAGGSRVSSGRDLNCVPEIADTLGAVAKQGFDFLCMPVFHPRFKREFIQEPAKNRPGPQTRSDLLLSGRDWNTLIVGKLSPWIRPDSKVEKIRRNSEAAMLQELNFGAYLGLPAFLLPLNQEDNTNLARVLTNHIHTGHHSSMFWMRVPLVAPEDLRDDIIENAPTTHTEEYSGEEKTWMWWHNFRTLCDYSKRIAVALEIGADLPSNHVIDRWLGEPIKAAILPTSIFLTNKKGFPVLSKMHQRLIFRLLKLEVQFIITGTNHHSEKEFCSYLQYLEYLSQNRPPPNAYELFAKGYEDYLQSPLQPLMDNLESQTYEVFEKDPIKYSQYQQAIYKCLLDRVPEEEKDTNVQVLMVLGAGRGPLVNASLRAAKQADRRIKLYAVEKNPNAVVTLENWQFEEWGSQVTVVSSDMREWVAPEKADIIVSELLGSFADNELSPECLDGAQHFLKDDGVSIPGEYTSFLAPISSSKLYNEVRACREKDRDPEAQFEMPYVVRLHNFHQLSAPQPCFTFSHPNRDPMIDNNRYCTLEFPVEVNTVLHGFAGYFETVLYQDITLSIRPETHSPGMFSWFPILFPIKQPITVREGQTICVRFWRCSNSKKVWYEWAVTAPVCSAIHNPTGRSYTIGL
T1 sequence (Q9BQA1 whole entry partner): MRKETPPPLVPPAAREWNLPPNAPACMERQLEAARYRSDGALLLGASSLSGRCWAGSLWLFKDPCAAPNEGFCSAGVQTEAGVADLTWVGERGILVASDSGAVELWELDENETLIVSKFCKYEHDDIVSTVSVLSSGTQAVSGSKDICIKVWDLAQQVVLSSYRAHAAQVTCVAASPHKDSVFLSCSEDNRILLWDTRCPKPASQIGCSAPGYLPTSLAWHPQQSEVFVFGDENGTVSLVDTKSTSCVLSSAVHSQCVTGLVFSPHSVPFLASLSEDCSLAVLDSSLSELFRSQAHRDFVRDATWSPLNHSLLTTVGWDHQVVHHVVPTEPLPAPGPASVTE

SMILES	IC50 [1] [nM]	IC50 [2] [nM]	IC50 [4] [nM]	IC50 [5] [nM]	IC50 [6] [nM]	IC50 [3] [nM]	MTAP intact/deleted ratio [5]
C[C@@H]1CC[C@@H](c2cccc(N(C)C)c2)N(C(=O)C(=O)Nc2cncc(C(N)=O)c2)C1 (single isomer, unassigned) [Compound 375]	50 to 500	< 50	> 1000	< 100	50 to 500	1000 to 10000	A (an IC50 ratio greater than or equal to 10 fold)
C[C@H]1CC[C@H](c2ccc3c(c2)C[C@H](C)O3)N(C(=O)C(=O)Nc2cncc(C(N)=O)c2)C1 (single isomer, unassigned) [Compound 376]	> 500	> 500	> 1000	> 1000	> 500	> 10000	C (an IC50 ratio of less than 3 fold)
Cc1cc(NC(=O)C(=O)N2CC[C@H](C#N)C[C@@H]2c2ccccc2)cnc1N (single isomer, unassigned) [Compound 380]	> 500	> 500	> 1000	> 1000	> 500	> 10000	C (an IC50 ratio of less than 3 fold)
C[C@@H]1CC[C@@H](c2ccc(N)cc2)N(C(=O)C(=O)Nc2cncc(C(N)=O)c2)C1 (single isomer, unassigned) [Compound 381]	50 to 500	< 50	> 1000	< 100	< 50	< 1000	A (an IC50 ratio greater than or equal to 10 fold)
C[C@H]1CC[C@H]([C@H]2CC[C@@H](O)CC2)N(C(=O)C(=O)Nc2cncc(C(N)=O)c2)C1 (single isomer, unassigned) [Compound 382]	> 500	> 500	> 1000	> 1000	> 500	> 10000	C (an IC50 ratio of less than 3 fold)
Cc1c(NC(=O)C(=O)N2C[C@@H](C)CC[C@@H]2c2ccc(O)cc2)cnc(N)c1C (single isomer, unassigned) [Compound 383]	50 to 500	< 50	> 1000	< 100	50 to 500	< 1000	A (an IC50 ratio greater than or equal to 10 fold)
Cc1cc(NC(=O)C(=O)N2CCCC[C@H]2c2cccc(N(C)C)c2)cnc1N (single isomer, unassigned) [Compound 384]	50 to 500	< 50	> 1000	< 100	< 50	< 1000	A (an IC50 ratio greater than or equal to 10 fold)
Cc1c(NC(=O)C(=O)N2C[C@H](C)CC[C@H]2c2ccc(O)cc2)cnc(N)c1C (single isomer, unassigned) [Compound 391]	> 500	> 500	> 1000	> 1000	> 500	> 10000	C (an IC50 ratio of less than 3 fold)
C[C@@H]1CC[C@@H]([C@H]2CC[C@H](O)CC2)N(C(=O)C(=O)Nc2cncc(C(N)=O)c2)C1 (single isomer, unassigned) [Compound 395]	> 500	> 500	> 1000	> 1000	> 500	> 10000	C (an IC50 ratio of less than 3 fold)
Cc1cc(NC(=O)C(=O)N2CC[C@@H](C#N)C[C@H]2c2ccccc2)cnc1N (single isomer, unassigned) [Compound 399]	50 to 500	< 50	> 1000	< 100	50 to 500	1000 to 10000	A (an IC50 ratio greater than or equal to 10 fold)
Cc1c(NC(=O)C(=O)N2[C@@H](C)CCC[C@H]2c2ccccc2)cnc(N)c1C (single isomer, unassigned) [Compound 425]	50 to 500	< 50	> 1000	100 to 1000	50 to 500	1000 to 10000	A (an IC50 ratio greater than or equal to 10 fold)
Cc1cc(NC(=O)C(=O)N2C[C@H](C)CC[C@H]2[C@H]2CC[C@H](O)CC2)cnc1N (single isomer, unassigned) [Compound 431]	50 to 500	< 50	> 1000	< 100	50 to 500	1000 to 10000	A (an IC50 ratio greater than or equal to 10 fold)
C[C@@H]1CC[C@@H](c2ccc3c(c2)CCCN3)N(C(=O)C(=O)Nc2cncc(C(N)=O)c2)C1 (single isomer, unassigned) [Compound 432]	50 to 500	< 50	> 1000	< 100	50 to 500	1000 to 10000	A (an IC50 ratio greater than or equal to 10 fold)
Cc1cc(NC(=O)C(=O)N2C[C@H](C)CC[C@H]2[C@H]2CC[C@@H](O)CC2)cnc1N (single isomer, unassigned) [Compound 436]	50 to 500	50 to 500	> 1000	100 to 1000	50 to 500	> 10000	A (an IC50 ratio greater than or equal to 10 fold)

Further lines, with some results ahead:

IC50 [1] [nM]	IC50 [2] [nM]	IC50 [4] [nM]	IC50 [5] [nM]	IC50 [6] [nM]	SMILES	IC50 [3] [nM]	MTAP intact/deleted ratio [5]
> 500	> 500	> 1000	> 1000	> 500	C[C@H]1CC[C@H](c2ccc3c(c2)C[C@@H](C)O3)N(C(=O)C(=O)Nc2cncc(C(N)=O)c2)C1 (single isomer, unassigned) [Compound 377]	> 10000	C (an IC50 ratio of less than 3 fold)
50 to 500	< 50	100 to 1000	< 100	< 50	Cc1cc(NC(=O)C(=O)N2C[C@H](C)CC[C@H]2c2cccc(N(C)C)c2)cnc1N (single isomer, unassigned) [Compound 386]	< 1000	A (an IC50 ratio greater than or equal to 10 fold)
50 to 500	50 to 500	> 1000	> 1000	> 500	Cc1cc(NC(=O)C(=O)N2CCCC[C@@H]2c2cccc(N(C)C)c2)cnc1N (single isomer, unassigned) [Compound 390]	> 10000	B (an IC50 ratio greater than or equal to 3 fold but lower than 10 fold)
50 to 500	50 to 500	> 1000	> 1000	> 500	C[C@@H]1CC[C@@H]([C@H]2CC[C@@H](O)CC2)N(C(=O)C(=O)Nc2cncc(C(N)=O)c2)C1 (single isomer, unassigned) [Compound 393]	> 10000	B (an IC50 ratio greater than or equal to 3 fold but lower than 10 fold)
50 to 500	< 50	> 1000	100 to 1000	50 to 500	C[C@H]1CC[C@H]([C@H]2CC[C@H](O)CC2)N(C(=O)C(=O)Nc2cncc(C(N)=O)c2)C1 (single isomer, unassigned) [Compound 394]	1000 to 10000	A (an IC50 ratio greater than or equal to 10 fold)
> 500	> 500	> 1000	> 1000	> 500	C[C@H]1CC[C@H](c2ccc(N)cc2)N(C(=O)C(=O)Nc2cncc(C(N)=O)c2)C1 (single isomer, unassigned) [Compound 398]	> 10000	B (an IC50 ratio greater than or equal to 3 fold but lower than 10 fold)
50 to 500	< 50	100 to 1000	< 100	50 to 500	Cc1cc(NC(=O)C(=O)N2[C@H](C)CCC[C@@H]2c2ccccc2)cnc1N (single isomer, unassigned) [Compound 415]	1000 to 10000	A (an IC50 ratio greater than or equal to 10 fold)
50 to 500	50 to 500	> 1000	100 to 1000	> 500	Cc1cc(NC(=O)C(=O)N2[C@@H](C)CCC[C@H]2c2ccccc2)cnc1N (single isomer, unassigned) [Compound 417]	> 10000	B (an IC50 ratio greater than or equal to 3 fold but lower than 10 fold)
50 to 500	< 50	> 1000	< 100	> 500	C[C@H]1CC[C@H](c2ccccc2)N(C(=O)C(=O)Nc2cncc(C(N)=O)c2)[C@H]1C (single isomer, unassigned) [Compound 433]	> 10000	A (an IC50 ratio greater than or equal to 10 fold)
